Measured values from patent US10106515B2, “1-(cyclopent-2-en-1-yl)-3-(2-hydroxy-3-(arylsulfonyl)phenyl)urea derivatives as CXCR2 inhibitors” (GLAXOSMITHKLINE INTELLECTUAL PROPERTY DEVELOPMENT LIMITED, priority 2014, dated 2018).
Where a name gives a salt, the structure may show the parent alone. Read-outs that look alike come from different tables or passages of the source.

Key:
[1] = biological target: T1, recombinant human CXCR2 (Homo sapiens, UniProt P25025); assay: CXCR2 Tango assay; type: cell-based; settings: mean pIC50 of multiple test results; stimulated with 80 nM hCXCL1; reporter gene blue/green emission ratio; read-out: pIC50 (CXCR2 Tango assay) (converted)
T1 construct: TEV protease site; Gal4-VP16 transcription factor
T1 sequence (P25025 1-360): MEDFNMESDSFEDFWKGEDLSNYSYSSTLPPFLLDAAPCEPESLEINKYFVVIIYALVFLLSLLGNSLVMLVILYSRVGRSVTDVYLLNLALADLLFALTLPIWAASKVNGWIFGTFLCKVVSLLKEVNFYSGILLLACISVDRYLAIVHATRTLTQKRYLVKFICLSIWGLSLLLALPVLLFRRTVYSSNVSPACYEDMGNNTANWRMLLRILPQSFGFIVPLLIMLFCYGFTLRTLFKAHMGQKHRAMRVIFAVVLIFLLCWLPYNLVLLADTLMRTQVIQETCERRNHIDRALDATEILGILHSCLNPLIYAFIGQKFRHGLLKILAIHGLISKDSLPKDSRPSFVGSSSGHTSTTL
Outline: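 Mean pIC50 comes from sigmoidal fits of the blue/green (460/530 nm) CCF4-AM ratio, normalized between hCXCL1-stimulated and DMSO controls. Compounds in 10-point dose response were incubated overnight at 37 °C with recombinant human CXCR2 Tango cells (~10,000/well) and 80 nM hCXCL1, with reporter read-out via arrestin-TEV release of Gal4-VP16.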

[2] = tested on: upregulation of CD11b in GROα stimulated neutrophils in human whole blood; assay: Human whole blood assay (CD11b upregulation); type: cell-based; settings: Neutrophil, inhibition of CD11b upregulation, GROα 33 nM final, flow cytometry, read-out: pIC50 (human whole blood assay) (converted)
Description: The whole blood assay tested the compounds' ability to inhibit the upregulation of CD11b in GROα stimulated neutrophils in human whole blood.
Blood was withdrawn by venipuncture from consented adults and poured into a Sterilin tube containing an anti-coagulant Heparin (10 uL/mL of blood). All the test compounds were dissolved in DMSO to 4 mM and serial diluted across the plate, 1 in 3 to provide 10 point dose response curves. The compounds were then diluted 100 fold in -PBS [Phosphate buffered saline (without Calcium Chloride and Magnesium Chloride)] after which, 1 uL was dispensed in 96 U bottom Costar plates using an FX.
10 uL of blood was transferred to the compound plate using a multi-channel pipette, gently tapped and incubated for 15 minutes, at 37° C. After 15 minutes, the stimulant GROα was diluted to 100 nM in 0.1% BSA (Albumin Bovine Serum)-PBS and 5 uL is dispensed across the whole plate for a final concentration of 33 nM. The plate was gently tapped and incubated further for 15 minutes at 37° C. The plate was placed on ice for 1 minute before addition of 10 uL of an antibody cocktail consisting of CD11b-FITC (40 ug/mL) purchased from BioLegend (address: Cambridge Bioscience, Munro House, Trafalgar Way, Bar Hill, Cambridge, UK) and CD16-PE purchased from BD Pharmingen (address: The Danby Building, Edmung Halley Road, Oxford Science Park, Oxford, UK) (stock concentration 100 tests, 2 mL stock volume is diluted 1 in 5). The plate was placed on ice for 1 hour in the dark. The cells were then fixed using 200 uL/well of 1×FACS (Flow Activated Cell Sorting) Lyse solution (Becton and Dickinson-BD) and on ice for 20 minutes in the dark. The plate was centrifuged at 1600 rpm for 5 minutes and re-suspended with 200 uL of ice cold PBS. This step was repeated twice and on the final step the plate was re-suspended with 50 uL of ice cold -PBS for flow Cytometric analysis.
Samples were run on a Becton and Dickinson (BD)-Acurri C6 Flow Cytometer using a HyperCyt sampling apparatus (IntelliCyt) with a flow rate 2 uL/sec. CD11b upregulation is monitored in neutrophils and identified using a combination of both side scatter and CD16 expression.

Structure (SMILES) | IC50 [1] | IC50 [2] | IC50 ([2]; Homo sapiens)
CC(C)(C1COC1)S(=O)(=O)c1c(Cl)ccc(NC(=O)N[C@@H]2CCC=C2Cl)c1O [Compound 5, (R)-1-(4-chloro-2-hydroxy-3-((2-(oxetan-3-yl)propan-2-yl)sulfonyl)phenyl)-3-(2-chlorocyclopent-2-en-1-yl)urea] | ≤ 10 nM | 25.1 to 2510 nM | –
CC1=CCCC1NC(=O)Nc1ccc(Cl)c(S(=O)(=O)C(C)C)c1O (stereo not drawn) [Compound 20, 1-(4-chloro-2-hydroxy-3-(isopropylsulfonyl)phenyl)-3-(2-methylcyclopent-2-en-1-yl)urea] | ≤ 1 nM | 25.1 to 2510 nM | –
CC1=CCC[C@H]1NC(=O)Nc1ccc(Cl)c(S(=O)(=O)C(C)c2ccccn2)c1O (stereo partly drawn) [Compound 23, 1-(4-chloro-2-hydroxy-3-((1-(pyridin-2-yl)ethyl)sulfonyl)phenyl)-3-((R)-2-methylcyclopent-2-en-1-yl)urea, trifluoroacetic acid salt] | ≤ 1 nM | 25.1 to 2510 nM | –
CC1=CCC[C@H]1NC(=O)Nc1ccc(Cl)c(S(=O)(=O)C(C)c2ncccn2)c1O (stereo partly drawn) [Compound 27, 1-(4-chloro-2-hydroxy-3-((1-(pyrimidin-2-yl)ethyl)sulfonyl)phenyl)-3-((R)-2-methylcyclopent-2-en-1-yl)urea] | ≤ 10 nM | 25.1 to 2510 nM | –
CC1=CCC[C@H]1NC(=O)Nc1ccc(C#N)c(S(=O)(=O)C(C)(C)C(F)(F)F)c1O [Compound 31, (R)-1-(4-cyano-2-hydroxy-3-((1,1,1-trifluoro-2-methylpropan-2-yl)sulfonyl)phenyl)-3-(2-methylcyclopent-2-en-1-yl)urea] | ≤ 1 nM | 25.1 to 2510 nM | –
CC1(S(=O)(=O)c2c(Cl)ccc(NC(=O)N[C@@H]3CCC=C3Cl)c2O)CCOC1 (stereo partly drawn) [Compound 39, 1-(4-chloro-2-hydroxy-3-((3-methyltetrahydro-furan-3-yl)sulfonyl)phenyl)-3-((R)-2-chlorocyclopent-2-en-1-yl)urea] | ≤ 1 nM | 25.1 to 2510 nM | –
CC1(S(=O)(=O)c2c(Cl)ccc(NC(=O)N[C@@H]3CCC=C3Cl)c2O)CCOCC1 [Compound 40, (R)-1-(4-chloro-2-hydroxy-3-((4-methyltetrahydro-2H-pyran-4-yl)sulfonyl)phenyl)-3-(2-chlorocyclopent-2-en-1-yl)urea] | ≤ 10 nM | 25.1 to 2510 nM | –
[2H]C([2H])([2H])C1(S(=O)(=O)c2c(Cl)ccc(NC(=O)N[C@@H]3CCC=C3Cl)c2O)CCOCC1 [Compound 41] | ≤ 1 nM | 25.1 to 2510 nM | –
CC1(S(=O)(=O)c2c(Cl)ccc(NC(=O)N[C@H]3CCC=C3Cl)c2O)CCOCC1 [Compound 42, (S)-1-(4-chloro-2-hydroxy-3-((4-methyltetrahydro-2H-pyran-4-yl)sulfonyl)phenyl)-3-(2-chlorocyclopent-2-en-1-yl)urea] | – | 25.1 to 2510 nM | –
CC1=CCC[C@H]1NC(=O)Nc1ccc(Cl)c(S(=O)(=O)[C@H]2C[C@H](N3CC[C@@H](F)C3)C2)c1O [Compound 49, trans-1-(4-chloro-3-((3-((R)-3-fluoropyrrolidin-1-yl)cyclobutyl)sulfonyl)-2-hydroxyphenyl)-3-((R)-2-methylcyclopent-2-en-1-yl)urea, trifluoroacetic acid salt] | ≤ 1 nM | 25.1 to 2510 nM | –
CC1=CCC[C@H]1NC(=O)Nc1ccc(Cl)c(S(=O)(=O)C(C)(C)[C@H]2CCOC2)c1O [Compound 56, 1-(4-chloro-2-hydroxy-3-((2-((S)-tetrahydrofuran-3-yl)propan-2-yl)sulfonyl)phenyl)-3-((R)-2-methylcyclopent-2-en-1-yl)urea] | ≤ 10 nM | 25.1 to 2510 nM | –
CC1=CCC[C@H]1NC(=O)Nc1ccc(Cl)c(S(=O)(=O)C(C)(C)C)c1O [Compound 57] | ≤ 1 nM | 25.1 to 2510 nM | –
CC1=CCC[C@H]1NC(=O)Nc1ccc(Cl)c(S(=O)(=O)C(C)(C)C2CCOC2)c1O (stereo partly drawn) [Compound 59, 1-(4-chloro-2-hydroxy-3-((2-(tetrahydrofuran-3-yl)propan-2-yl)sulfonyl)phenyl)-3-((R)-2-methylcyclopent-2-en-1-yl)urea] | ≤ 1 nM | 25.1 to 2510 nM | –
CC1=CCC[C@H]1NC(=O)Nc1ccc(Cl)c(S(=O)(=O)C(C)(C)C2CCOCC2)c1O [Compound 60, (R)-1-(4-chloro-2-hydroxy-3-((2-(tetrahydro-2H-pyran-4-yl)propan-2-yl)sulfonyl)phenyl)-3-(2-methylcyclopent-2-en-1-yl)urea] | ≤ 1 nM | 25.1 to 2510 nM | –
CC1=CCC[C@H]1NC(=O)Nc1ccc(Cl)c(S(=O)(=O)C(C)(C)CF)c1O [Compound 62, (R)-1-(4-chloro-3-((1-fluoro-2-methylpropan-2-yl)sulfonyl)-2-hydroxyphenyl)-3-(2-methylcyclopent-2-en-1-yl)urea] | ≤ 1 nM | 25.1 to 2510 nM | –
CC1=CCC[C@H]1NC(=O)Nc1ccc(Cl)c(S(=O)(=O)C2(C)CCCOC2)c1O (stereo partly drawn) [Compound 66, 1-(4-chloro-2-hydroxy-3-((3-methyltetrahydro-2H-pyran-3-yl)sulfonyl)phenyl)-3-((R)-2-methylcyclopent-2-en-1-yl)urea] | ≤ 10 nM | 25.1 to 2510 nM | –

Continued, values first:

IC50 [1] | IC50 [2] | IC50 ([2]; Homo sapiens) | Structure (SMILES)
≤ 1 nM | 25.1 to 2510 nM | – | CO[C@@H]1CCC[C@H]1S(=O)(=O)c1c(Cl)ccc(NC(=O)N[C@@H]2CCC=C2C)c1O (racemic) [Compound 144, (±)trans-1-(4-chloro-2-hydroxy-3-((2-methoxycyclopent-yl)sulfonyl)phenyl)-3-((R)-2-methylcyclopent-2-en-1-yl)urea, trifluoroacetic acid salt]
≤ 10 nM | – | 25.1 to 2510 nM | CC1=CCC[C@H]1NC(=O)Nc1ccc(Cl)c(S(=O)(=O)C2(C)CCOC2)c1O (stereo partly drawn) [Compound 68, 1-(4-chloro-2-hydroxy-3-((3-methyltetrahydro-furan-3-yl)sulfonyl)phenyl)-3-((R)-2-methylcyclopent-2-en-1-yl)urea]
≤ 1 nM | 25.1 to 2510 nM | – | CC1=CCC[C@H]1NC(=O)Nc1ccc(Cl)c(S(=O)(=O)C2(C)CCOCC2)c1O [Compound 69, (R)-1-(4-chloro-2-hydroxy-3-((4-methyltetrahydro-2H-pyran-4-yl)sulfonyl)phenyl)-3-(2-methylcyclopent-2-en-1-yl)urea]
≤ 10 nM | – | – | O=C(Nc1ccc(Cl)c(S(=O)(=O)[C@H]2CCOC2)c1O)NC1CCC=C1Cl (stereo partly drawn) [Compound 179, 1-(4-chloro-2-hydroxy-3-(((S)-tetrahydrofuran-3-yl)sulfonyl)phenyl)-3-(2-chlorocyclopent-2-en-1-yl)urea]
≤ 10 nM | – | – | O=C(Nc1ccc(Cl)c(S(=O)(=O)C2CCOCC2)c1O)NC1CCC=C1Cl (stereo not drawn) [Compound 180, 1-(4-chloro-2-hydroxy-3-((tetrahydro-2H-pyran-4-yl)sulfonyl)phenyl)-3-(2-chlorocyclopent-2-en-1-yl)urea]
> 10000 nM | – | – | CC1(S(=O)(=O)c2c(Cl)ccc(NC(=O)N[C@@H]3CCC=C3Cl)c2O)COC1 [Compound 181, (R)-1-(4-chloro-2-hydroxy-3-((3-methyloxetan-3-yl)sulfonyl)phenyl)-3-(2-chlorocyclopent-2-en-1-yl)urea]
≤ 10 nM | – | – | [2H]C([2H])([2H])C1(S(=O)(=O)c2c(Cl)ccc(NC(=O)N[C@@H]3CCC=C3Cl)c2O)CCOC1 (stereo partly drawn) [Compound 183, 1-(4-chloro-2-hydroxy-3-((3-(d3-methyl)tetrahydro-furan-3-yl)sulfonyl)phenyl)-3-((R)-2-chlorocyclopent-2-en-1-yl)urea]
≤ 10 nM | – | – | CC1=CCC[C@H]1NC(=O)Nc1ccc(Cl)c(S(=O)(=O)[C@]2(C)CCOC2)c1O [Compound 196, 1-(4-chloro-2-hydroxy-3-(((R)-3-methyltetrahydrofuran-3-yl)sulfonyl)phenyl)-3-((R)-2-methylcyclopent-2-en-1-yl)urea]
